# Laboratory results published in article PMC7932521, “2-aminobenzimidazoles for leishmaniasis: From initial hit discovery to in vivo profiling” (PLoS Neglected Tropical Diseases, 2021).
# pEC50, pIC50: −log10 of the molar value.
# What was measured:
# [1] = HEPG2 cytotoxicity; format: cell-based; details: human, HepG2 cells; S1 Data
# From the text: Supplement pntd.0009196.s001.xlsx, sheet "Complete Dataset" | column: HEPG2 CC50 (uM)
# [2] = system: CHO; assay: Bioprofiling 6pt Ag CHO Hamster; format: cell-based; details: agonist readout
# Description: (§1) The compounds were evaluated across a panel of 20 liability targets (37 functional assays) which included functional cell-based GPCRs and ion channels in both agonist and antagonist readout, measuring calcium flux and biochemical functional assays for nuclear hormone receptors and phosphodiesterases using TR-FRET format, in a 6 point 1:3 dilution dose series (maximum final concentration of 10 μM).
# [3] = molecular target: T1, 5-HT1A (Homo sapiens, UniProt P08908); assay: Bioprofiling 6pt Ag 5-HT1A CHO; format: cell-based; details: agonist readout
# T1 construct: expressed in transfected cells; host or cells: CHO
# T1 sequence (P08908 1-422): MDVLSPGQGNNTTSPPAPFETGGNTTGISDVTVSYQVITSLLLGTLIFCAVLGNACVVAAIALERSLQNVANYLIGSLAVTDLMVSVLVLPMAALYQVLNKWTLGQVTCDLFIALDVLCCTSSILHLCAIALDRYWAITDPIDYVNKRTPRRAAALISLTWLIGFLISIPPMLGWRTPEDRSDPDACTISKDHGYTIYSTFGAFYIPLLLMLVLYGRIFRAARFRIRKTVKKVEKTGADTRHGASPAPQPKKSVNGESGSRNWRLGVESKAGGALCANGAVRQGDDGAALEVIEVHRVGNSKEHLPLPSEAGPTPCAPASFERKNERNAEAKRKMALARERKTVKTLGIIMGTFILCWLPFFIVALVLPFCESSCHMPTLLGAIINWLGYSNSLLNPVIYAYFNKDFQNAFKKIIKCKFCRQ
# Description: as §1
# [4] = molecular target: T2, ETB (Homo sapiens, UniProt P24530); assay: Bioprofiling 6pt Antag ETB CHO; format: cell-based; details: antagonist readout vs BQ-3020
# T2 construct: expressed in transfected cells; host or cells: CHO
# T2 sequence (P24530 27-442): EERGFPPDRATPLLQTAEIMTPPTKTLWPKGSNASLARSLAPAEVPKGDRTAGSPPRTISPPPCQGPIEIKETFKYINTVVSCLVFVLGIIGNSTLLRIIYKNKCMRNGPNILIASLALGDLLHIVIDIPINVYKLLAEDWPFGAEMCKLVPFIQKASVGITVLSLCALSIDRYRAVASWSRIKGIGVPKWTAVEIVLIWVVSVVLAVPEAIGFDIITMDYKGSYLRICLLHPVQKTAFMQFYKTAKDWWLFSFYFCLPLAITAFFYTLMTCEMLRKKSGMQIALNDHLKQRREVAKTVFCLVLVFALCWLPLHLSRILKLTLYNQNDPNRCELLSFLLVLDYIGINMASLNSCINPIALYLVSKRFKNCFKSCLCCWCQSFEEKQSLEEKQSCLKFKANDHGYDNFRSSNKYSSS
# Description: as §1
# [5] = molecular target: T1, 5-HT1A; assay: Bioprofiling 6pt Antag 5-HT1A CHO; format: cell-based; details: antagonist readout vs 5-Carboxytryptamine (5-CT)
# Description: as §1
# [6] = Kinetic solubility; format: physicochemical; details: for solubility kinetic at 24 h: PBS buffer pH 7.4, aqueous buffer, kinetic from dmso stock, PBS pH 7.4, read-out: KS PBS - pH7.4; for KS pH 7.4: kinetic solubility
# Description: The precipitates on the incubation plate were removed by centrifugation (15 min, 3000 rpm, r.t.); the compound concentration in the resulting supernatant was determined by LC-MS/MS. Results were calculated as the concentration of remaining compound in solution after incubation.
# [7] = Mouse liver microsomal stability; format: in vitro ADME
# How it was run: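 Test compound at 0.5 μM incubated with 0.25 mg/mL human (200-donor pool) or CD1 mouse liver microsomes, pH 7.4, 37°C, started with […]; sampled 0–30 min. LC-MS/MS quantitation against internal standard; t1/2 and Clint (μL/min/mg) from non-linear regression of % remaining versus time.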
# [8] = molecular target: T3, B2 (Homo sapiens, UniProt P30411); assay: Bioprofiling 6pt Antag B2 CHO; format: cell-based; details: antagonist readout vs Bradykinin
# T3 construct: expressed in transfected cells; host or cells: CHO
# T3 sequence (P30411 1-391): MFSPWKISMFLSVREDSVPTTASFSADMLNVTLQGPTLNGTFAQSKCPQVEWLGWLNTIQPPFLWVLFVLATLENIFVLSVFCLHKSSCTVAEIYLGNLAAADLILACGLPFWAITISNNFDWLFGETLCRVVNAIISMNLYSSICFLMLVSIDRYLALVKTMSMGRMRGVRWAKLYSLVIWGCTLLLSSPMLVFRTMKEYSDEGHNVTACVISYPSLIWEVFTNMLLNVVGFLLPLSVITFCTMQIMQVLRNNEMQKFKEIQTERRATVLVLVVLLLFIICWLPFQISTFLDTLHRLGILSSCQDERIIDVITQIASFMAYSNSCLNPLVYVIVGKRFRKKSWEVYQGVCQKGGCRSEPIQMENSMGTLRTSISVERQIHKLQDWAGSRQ
# Description: as §1
# [9] = molecular target: T4, A1 (Homo sapiens, UniProt P30542); assay: Bioprofiling 6pt Ag A1 CHO; format: cell-based; details: agonist readout
# T4 construct: expressed in transfected cells; host or cells: CHO
# T4 sequence (P30542 1-326): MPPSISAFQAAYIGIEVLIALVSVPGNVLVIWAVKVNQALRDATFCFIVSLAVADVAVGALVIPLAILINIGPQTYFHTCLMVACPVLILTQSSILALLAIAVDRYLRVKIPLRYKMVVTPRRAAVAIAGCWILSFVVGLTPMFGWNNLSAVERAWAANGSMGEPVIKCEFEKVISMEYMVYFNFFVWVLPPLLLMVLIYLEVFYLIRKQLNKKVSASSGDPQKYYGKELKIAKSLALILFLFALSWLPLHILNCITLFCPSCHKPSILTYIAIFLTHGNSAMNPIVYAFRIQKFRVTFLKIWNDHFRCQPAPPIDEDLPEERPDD
# Description: as §1
# [10] = molecular target: T5, CB1 (Homo sapiens, UniProt P21554); assay: Bioprofiling 6pt Ag CB1 CHO; format: cell-based; details: agonist readout
# T5 construct: expressed in transfected cells; host or cells: CHO
# Description: as §1
# [11] = mouse liver microsome intrinsic clearance
# T5 sequence (P21554 whole entry): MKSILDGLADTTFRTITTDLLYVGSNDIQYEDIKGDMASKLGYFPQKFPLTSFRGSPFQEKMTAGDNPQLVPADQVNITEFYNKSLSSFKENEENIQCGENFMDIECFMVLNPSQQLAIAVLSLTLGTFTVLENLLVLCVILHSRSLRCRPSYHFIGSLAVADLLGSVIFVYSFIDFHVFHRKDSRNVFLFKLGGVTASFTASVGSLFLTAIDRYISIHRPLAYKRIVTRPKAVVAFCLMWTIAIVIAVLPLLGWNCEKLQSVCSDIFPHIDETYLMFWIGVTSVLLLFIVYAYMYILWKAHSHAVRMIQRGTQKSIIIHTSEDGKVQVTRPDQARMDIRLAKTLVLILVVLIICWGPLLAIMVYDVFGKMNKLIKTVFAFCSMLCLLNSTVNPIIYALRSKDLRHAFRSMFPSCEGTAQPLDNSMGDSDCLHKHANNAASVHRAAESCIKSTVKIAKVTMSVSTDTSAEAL
SMILES,CC50 [1] [nM],pEC50 [2],pEC50 [3],pIC50 [4],pIC50 [5],solubility kinetic at 24 h [6] [µg/mL],KS PBS - pH 2 [6] [ug/mL],MLM CLint ([7]; S1 Data) [µL/min/mg],pIC50 [8],pEC50 [9],pEC50 [10],KS pH 7.4 [6] [μM],"MLM CLint [7, 11] [µL/min/mg]","microsomal CLint at 0.5 μM ([7]; CD1, mouse, liver microsomes, pH 7.4, mouse liver microsome intrinsic clearance, read-out: MLM Clint) [µL/min/mg]"
"COc1ccc(C(=O)Nc2nc3ccc(C#N)cc3n2CC(F)(F)F)cn1 [Compound 43, O=C(c1ccc(OC)nc1)Nc2nc(ccc(C#N)c3)c3n2CC(F)(F)F]",2600,< 5.00,< 5.00,< 5.00,< 5.00,0.38,0.38,170,< 5.00,< 5.00,< 5.00,–,–,–
"N#Cc1ccc2nc(NC(=O)c3ccc(C(F)(F)F)nc3)n(CC(F)(F)F)c2c1 [Compound 45, O=C(c1ccc(C(F)(F)F)nc1)Nc2nc(ccc(C#N)c3)c3n2CC(F)(F)F]",1120,< 5.00,< 5.00,< 5.00,< 5.00,0.41,0.41,18,< 5.00,< 5.00,< 5.00,–,–,–
"N#Cc1ccc2nc(NC(=O)c3ccnc(C(F)(F)F)c3)n(CC(F)(F)F)c2c1 [Compound 44, O=C(c1ccnc(C(F)(F)F)c1)Nc2nc(ccc(C#N)c3)c3n2CC(F)(F)F]",2380,< 5.00,< 5.00,< 5.00,< 5.00,0.41,0.41,–,< 5.00,< 5.00,< 5.00,<1.0,27,–
"Cn1nccc1C(=O)Nc1nc2ccc(C#N)cc2n1CC(C)(C)C [Compound 29, O=C(Nc1n(CC(C)(C)C)c(c2n1)cc(C#N)cc2)c3n(C)ncc3]",9080,< 5.00,< 5.00,< 5.00,< 5.00,3.11,1.77,–,< 5.00,< 5.00,< 5.00,9.2,–,17
"Cn1nccc1C(=O)Nc1nc2ccc(C#N)cc2n1CC(F)(F)F [Compound 30, O=C(c1ccnn1C)Nc2nc(ccc(C#N)c3)c3n2CC(F)(F)F]",5460,< 5.00,< 5.00,< 5.00,< 5.00,9.22,10.45,–,< 5.00,< 5.00,< 5.00,26,20,–
"Cn1nc(C(F)(F)F)cc1C(=O)Nc1nc2ccc(C#N)cc2n1CC(F)(F)F [Compound 39, O=C(c1cc(C(F)(F)F)nn1C)Nc2nc(ccc(C#N)c3)c3n2CC(F)(F)F]",1130,< 5.00,< 5.00,< 5.00,< 5.00,0.42,0.42,–,< 5.00,< 5.00,< 5.00,<1.0,28,–
